Patent publication US20110003774A1, “COMPOUNDS HAVING ANTI-PROLIFERATIVE PROPERTIES” (VITAL HEALTH SCIENCES PTY. LTD., priority 2003, published 2011)

Legend:
[1] = test system: Rat Aortic Smooth Muscle Cells (RASMC); test: Smooth muscle cell proliferation - cell counts (Example 1); format: cell-based; details: for Inhibition of cellular proliferation (in words): cell counts after 72 h, tested 0.25-100 μM
Source text: The Rat Aortic Smooth Muscle Cells (RASMC) used in proliferative studies are derived from the tunica intima and tunica media of healthy, fibrous plaque-free adult rat aorta. This cell line is an accepted model for the study of atherosclerosis, since increased arterial smooth muscle mass are found in the intima lesion of atherosclerosis. RASMC are cryopreserved at second passage and can be propagated at least 16 population doublings. RASMC respond to various factors by cell proliferation and hypertrophy, which are prominent indicators of atherosclerosis in vascular disease. RASMC are well suited for the study of large vessel smooth muscle cell growth and differentiation and serve as an in vitro model in correlation with live rat models.
Rat Aortic Smooth Muscle Cells (RASMC) were seeded in growth medium (basal medium+10% FBS) into 6 well plates (50,000 cells/well). After 24 h, cells were washed twice with Hanks Buffered Salt Solution and serum depleted media (basal medium+0.2% FBS) was added to each well. Cells were serum starved for 48 h. Treatments were then prepared in growth medium and added to each well (3 ml/well). Each treatment was conducted in triplicate. The effect of tocopherol and tocopherol phosphate on smooth muscle cell proliferation was tested at eight concentrations: 0.25, 0.5, 1, 5, 10, 20, 50 and 100 μM. Control treatments included: growth medium and growth medium+vehicle (EtOH, 1/1000). After a 72 h incubation period at 37° C., 5% CO2, cells were counted.
Cell proliferation was assessed and quantified by cell counting. Cells were counted after 48 h starvation in basal medium supplemented with 0.2% serum before the addition of test compounds. The average cell count of triplicate wells was ˜60,000. This number exceeds the number of cells seeded prior to starvation (50,000). Therefore the cells were determined to be viable and treatments were added to each well as described previously.

CD36 scavenger receptor = test: Surface expression of CD36 scavenger receptor, FACS with antiCD36-FITC; format: cell-based, human; details: THP-1 monocytes, control cells treated with tocopherol
Procedure: (§1) Cell Culture: Tocopherol and the TP/T2P mixture were each dissolved in ethanol, and the concentrations of the stock solutions were confirmed spectrophotometrically. Monocytes (THP-1) were grown in RPMI/10% FCS.
FIG. 6 represents the change in cell numbers over time as indicated by the number of cells which have taken up the fluorescent antibody.

THP-1 monocytes [2] = test: Uptake of oxLDL-DiO by FACS; format: cell-based, human
Procedure: Labeling oxLDL. OxLDLs (90% to 100% oxidation) were purchased from Intracell Corp. Small amounts of LDL were oxidized with CuSO4 ([…]) at 37° C. for 18 to 22 hours. LDL oxidation was confirmed by the formation of a characteristic smear band on an agarose gel. Labeling of oxLDL was done basically as previously described. OxLDLs were incubated at 37° C. with DiO (Molecular Probes) in lipoprotein-deficient serum (Sigma) for 15 hours. The labeled oxLDLs (oxLDL-DiO) were purified by ultracentrifugation over a KBr gradient and dialyzed against several changes of saline-EDTA ([…] NaCl-0.01% EDTA) for 6 hours.
Uptake of oxLDL: Uptake of oxLDL was studied with fluorescence-activated cell sorting (FACS). For FACS, the cells were pretreated for 16 hours with 50 μM tocopherol, tocopheryl phosphates, or ethanol solvent (control) and then incubated with oxLDL-DiO (5 μg/mL medium) for 6 hours. For competition experiments, the cells were incubated with monoclonal anti-CD36 antibody (60 μg/5 mL DMEM) (Ancell), with an unspecific isotype-matched antibody (mouse IgM, Ancell), or with unlabeled oxLDL (100 μg/5 mL DMEM) (Intracell Corp). Thereafter, the cells were washed 3 times with PBS and twice with PBS-3 mg/mL BSA and then were detached with trypsin (0.25% trypsin, 0.03% EDTA). […] Data were calculated by subtracting the cell autofluorescence from the fluorescence of the treated samples.

THP-1 monocytes [3] = test: Growth inhibition of THP-1 monocytes; format: cell-based, human
Procedure: as §1
Growth inhibition by TP/T2P mixture of THP-1 Monocytes: Monocyte proliferation is an important event in the onset and progression of atherosclerosis.

[4] = test system: Rat Aortic Smooth Muscle Cells (RASMC); test: Counting adhered cells (Example 2, Study 1); format: cell-based; details: adhered cell counts, 0-100 μM, vs vehicle control
Procedure: This example assesses the anti-proliferative activity of α-tocopheryl phosphate (TP), di-tocopheryl phosphate (T2P), the TP/T2P mixture and α-tocopherol using two types of cell counting assays: adhered cell counts and MTS assay.
In this study cells remaining on the bottom of the plate were counted and anti-proliferative activity was assessed based on the number of viable cells that remained adhered to the plate.

[5] = test system: Rat Aortic Smooth Muscle Cells (RASMC); test: MTS proliferation assay (Example 2, Study 2); format: cell-based; details: 100 μM, vs vehicle control
Procedure: The MTS proliferation assay was conducted to further support and compliment the adhered cell counts assay. The MTS assay is a well established method for the assessment of cellular proliferation which takes into account the viable cells that are adhered to the plate (as in adhered cell counts) and those that may become detached and float in the media during the course of the experiment (which would be missed in adhered cell counts).

Row | Compound | Optimum inhibition of proliferation (plateau) ([1]; 72 h, higher doses) | Inhibition of cellular proliferation (in words) ([1]; listed as Tocopherol) | Inhibition of cellular proliferation (in words) ([1]; listed as α-tocopherol) | CD36 expression (in words) (CD36 scavenger receptor) | Concentration giving the same inhibition of oxLDL uptake (as 50 μM tocopherol, 33% reduction) (THP-1 monocytes [2]) | Reduction of OxLDL-DiO uptake signal (median of the peak) (THP-1 monocytes [2]; 50 μM, 16 h pretreatment, 6 h oxLDL-DiO) | Inhibition of monocyte proliferation (in words) (THP-1 monocytes [3]; THP-1, TP/T2P at 30 μM (TP1) and 60 μM (TP2), especially after 48 h, relative to ethanol control) | Inhibition of proliferation of human monocyte cells (THP-1 monocytes [3]; THP-1 monocytes) | Maximum inhibition of smooth muscle cell proliferation [4] | Inhibition of smooth muscle cell proliferation [5]
1 | Cc1c(C)c2c(c(C)c1O)CC[C@@](C)(CCC[C@H](C)CCC[C@H](C)CCCC(C)C)O2 [tocopherol, α-tocopherol] | around 60% | inhibited only to some degree | partially inhibited | expressed large amounts of CD36 receptors | 50 µM | 33% | not able to inhibit | no inhibition |  | 
2 | α-tocopheryl phosphate [TP] |  |  |  |  |  |  |  |  | did not inhibit | up to 85%
